Assay results as given in ChEMBL document CHEMBL1208719, “Design and synthesis of 4-[3,5-dioxo-11-oxa-4,9-diazatricyclo[5.3.1.0(2,6)]undec-4-yl]-2-trifluoromethyl-benzonitriles as androgen receptor antagonists” (Bioorg Med Chem Lett, 2010).

What was measured:
[1] = molecular target: T1, Androgen receptor (Homo sapiens, UniProt P10275); experiment: Displacement of [3H]DHT from AR in human MDA-MB-453 cells
T1 sequence (P10275 whole entry): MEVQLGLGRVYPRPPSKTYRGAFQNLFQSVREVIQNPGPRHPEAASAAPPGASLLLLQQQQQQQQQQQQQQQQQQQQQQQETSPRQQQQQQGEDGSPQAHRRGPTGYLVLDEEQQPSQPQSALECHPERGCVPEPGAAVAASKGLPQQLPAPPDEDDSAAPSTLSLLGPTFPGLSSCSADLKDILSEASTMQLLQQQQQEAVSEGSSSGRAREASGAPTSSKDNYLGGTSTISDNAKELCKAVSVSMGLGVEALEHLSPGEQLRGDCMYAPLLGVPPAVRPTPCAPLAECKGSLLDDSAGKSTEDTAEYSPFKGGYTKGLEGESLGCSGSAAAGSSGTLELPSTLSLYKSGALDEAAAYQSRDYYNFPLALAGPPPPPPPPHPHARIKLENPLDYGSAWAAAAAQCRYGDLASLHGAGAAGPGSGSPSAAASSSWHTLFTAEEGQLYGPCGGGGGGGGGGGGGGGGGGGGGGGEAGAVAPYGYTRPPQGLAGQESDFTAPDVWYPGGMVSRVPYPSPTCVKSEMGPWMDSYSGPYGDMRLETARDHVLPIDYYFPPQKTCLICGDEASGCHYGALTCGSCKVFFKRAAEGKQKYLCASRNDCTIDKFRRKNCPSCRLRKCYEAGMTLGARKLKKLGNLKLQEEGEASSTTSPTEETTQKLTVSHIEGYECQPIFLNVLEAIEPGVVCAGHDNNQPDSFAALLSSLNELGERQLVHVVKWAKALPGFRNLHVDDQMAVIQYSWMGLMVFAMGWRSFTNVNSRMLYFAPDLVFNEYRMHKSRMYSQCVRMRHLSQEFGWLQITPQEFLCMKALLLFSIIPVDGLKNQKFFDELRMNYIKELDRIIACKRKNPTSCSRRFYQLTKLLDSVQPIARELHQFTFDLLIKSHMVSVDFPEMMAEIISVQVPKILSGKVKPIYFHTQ

[2] = test system: MDA-MB-435; experiment: Cytotoxicity against human MDA-MB-435 cells assessed as inhibition of DHT-induced cell growth at 5 uM; type: functional
[3] = test system: LNCaP; experiment: Cytotoxicity against human LNCAP cells assessed as inhibition of DHT-induced cell growth at 5 uM; type: functional
[4] = molecular target: T1, Androgen receptor
Description: Antagonist activity at human wild type AR expressed in human MDA-MB-435 cells by transactivation assay

[5] = molecular target: T1, Androgen receptor; remark: listed apart in the source
Description: Antagonist activity at wild type human AR expressed in human LNCAP cells by transactivation assay

[6] = test system: Rattus norvegicus; experiment: Effect on immature rat prostate weight in rat assessed as ratio of weight of seminal vesicles to full body weight at 30 mg/kg, po qd for 3 days relative to control; type: functional, Prostate gland
[7] = test system: Rattus norvegicus; experiment: Effect on immature rat prostate weight in rat assessed as ratio of weight of seminal vesicles to full body weight at 1 mg/kg, po qd for 3 days relative to control; type: functional, Prostate gland
[8] = Metabolic stability in human liver microsomes assessed as compound remaining at 3 uM after 10 mins; type: ADME, Microsome; details: read-out: Activity
[9] = Metabolic stability in rat liver microsomes assessed as compound remaining at 3 uM after 10 mins; type: ADME, Microsome; details: read-out: Activity
[10] = Metabolic stability in mouse liver microsomes assessed as compound remaining at 3 uM after 10 mins; type: ADME, Microsome; details: read-out: Activity

| Structure (SMILES) | Ki [1] [nM] | inhibition at 5 µM [2] [%] | inhibition at 5 µM [3] [%] | IC50 [4] [nM] | IC50 [5] [nM] | Activity [6] [%] | Activity [7] [%] | remaining at 10 min, 3 µM [8] [%] | remaining at 10 min, 3 µM [9] [%] | remaining at 10 min, 3 µM [10] [%] |
| --- | --- | --- | --- | --- | --- | --- | --- | --- | --- | --- |
| C[C@]12CN(S(=O)(=O)c3ccc(F)cc3)C[C@](C)(O1)[C@@H]1C(=O)N(c3ccc(C#N)c(C(F)(F)F)c3)C(=O)[C@@H]12 | 32 | 100 | 95 | 54 | 685 | – | – | – | – | – |
| C[C@]12CNC[C@](C)(O1)[C@@H]1C(=O)N(c3ccc(C#N)c(C(F)(F)F)c3)C(=O)[C@@H]12 | 21 | 98 | 20 | 128 | > 5000 | – | – | – | – | – |
| CCCN1C[C@@]2(C)O[C@@](C)(C1)[C@@H]1C(=O)N(c3ccc(C#N)c(C(F)(F)F)c3)C(=O)[C@@H]12 | 14 | 99 | 98 | 14 | 25 | – | – | – | – | – |
| CCC(=O)N1C[C@@]2(C)O[C@@](C)(C1)[C@@H]1C(=O)N(c3ccc(C#N)c(C(F)(F)F)c3)C(=O)[C@@H]12 | 84 | 95 | 91 | 129 | 549 | – | – | – | – | – |
| CC(C)C(=O)N1C[C@@]2(C)O[C@@](C)(C1)[C@@H]1C(=O)N(c3ccc(C#N)c(C(F)(F)F)c3)C(=O)[C@@H]12 | 39 | 98 | 72 | 215 | 1610 | – | – | – | – | – |
| C[C@]12CN(C(=O)C3CC3)C[C@](C)(O1)[C@@H]1C(=O)N(c3ccc(C#N)c(C(F)(F)F)c3)C(=O)[C@@H]12 | 36 | 99 | 95 | – | 404 | – | – | – | – | – |
| C[C@]12CN(C(=O)c3ccccc3)C[C@](C)(O1)[C@@H]1C(=O)N(c3ccc(C#N)c(C(F)(F)F)c3)C(=O)[C@@H]12 | 23 | 99 | 98 | 54 | 177 | – | – | – | – | – |
| CC(C)NC(=O)N1C[C@@]2(C)O[C@@](C)(C1)[C@@H]1C(=O)N(c3ccc(C#N)c(C(F)(F)F)c3)C(=O)[C@@H]12 | 98 | 88 | 52 | 876 | 4600 | – | – | – | – | – |
| C[C@]12CN(C(=O)Nc3ccccc3)C[C@](C)(O1)[C@@H]1C(=O)N(c3ccc(C#N)c(C(F)(F)F)c3)C(=O)[C@@H]12 | 40 | 99 | 98 | 16 | 123 | – | – | – | – | – |
| CCOC(=O)N1C[C@@]2(C)O[C@@](C)(C1)[C@@H]1C(=O)N(c3ccc(C#N)c(C(F)(F)F)c3)C(=O)[C@@H]12 | 5.7 | 99 | 93 | 65 | 590 | – | – | – | – | – |
| CCCOC(=O)N1C[C@@]2(C)O[C@@](C)(C1)[C@@H]1C(=O)N(c3ccc(C#N)c(C(F)(F)F)c3)C(=O)[C@@H]12 | 6.6 | 99 | 99 | 9.3 | 54 | – | – | – | – | – |
| C[C@]12CN(C(=O)Nc3ccc(F)cc3)C[C@](C)(O1)[C@@H]1C(=O)N(c3ccc(C#N)c(C(F)(F)F)c3)C(=O)[C@@H]12 | 29 | 99 | 98 | 39 | 104 | – | – | – | – | – |
| C[C@]12CN(S(C)(=O)=O)C[C@](C)(O1)[C@@H]1C(=O)N(c3ccc(C#N)c(C(F)(F)F)c3)C(=O)[C@@H]12 | 56 | 99 | 61 | 205 | 3510 | – | – | – | – | – |
| CCS(=O)(=O)N1C[C@@]2(C)O[C@@](C)(C1)[C@@H]1C(=O)N(c3ccc(C#N)c(C(F)(F)F)c3)C(=O)[C@@H]12 | 16 | 99 | 90 | 85 | 600 | – | – | – | – | – |
| C[C@]12CN(S(=O)(=O)c3ccccc3)C[C@](C)(O1)[C@@H]1C(=O)N(c3ccc(C#N)c(C(F)(F)F)c3)C(=O)[C@@H]12 | 12 | 99 | 91 | 99 | 979 | – | – | – | – | – |
| C[C@]12CN(S(=O)(=O)c3ccccn3)C[C@](C)(O1)[C@@H]1C(=O)N(c3ccc(C#N)c(C(F)(F)F)c3)C(=O)[C@@H]12 | 93 | 98 | 80 | 170 | 1240 | – | – | – | – | – |
| C[C@]12CN(c3cccc(S(N)(=O)=O)c3)C[C@](C)(O1)[C@@H]1C(=O)N(c3ccc(C#N)c(C(F)(F)F)c3)C(=O)[C@@H]12 | 22 | 99 | 94 | 37 | 337 | – | – | – | – | – |
| C[C@]12CN(c3cccc(S(C)(=O)=O)c3)C[C@](C)(O1)[C@@H]1C(=O)N(c3ccc(C#N)c(C(F)(F)F)c3)C(=O)[C@@H]12 | 9.4 | 96 | 98 | 7.4 | 150 | 28 | 37 | 76 | 100 | 92 |
| C[C@]12CN(c3cc(Cl)ncn3)C[C@](C)(O1)[C@@H]1C(=O)N(c3ccc(C#N)c(C(F)(F)F)c3)C(=O)[C@@H]12 | 3.5 | 98 | 100 | 11 | – | – | – | – | – | – |
| C[C@]12CN(c3ncccn3)C[C@](C)(O1)[C@@H]1C(=O)N(c3ccc(C#N)c(C(F)(F)F)c3)C(=O)[C@@H]12 | 6.1 | 99 | 97 | 31 | 377 | – | – | – | – | – |
| C[C@]12CN(c3cccc(C(N)=O)c3)C[C@](C)(O1)[C@@H]1C(=O)N(c3ccc(C#N)c(C(F)(F)F)c3)C(=O)[C@@H]12 | 9 | 98 | 99 | – | 127 | – | – | – | – | – |
| CN1C(=O)[C@]2(C)O[C@](C)(C1=O)[C@H]1C(=O)N(c3ccc(C#N)c(C(F)(F)F)c3)C(=O)[C@H]12 | 20 | – | – | 2140 | > 5000 | – | – | – | – | – |
| C[C@]12O[C@](C)(C(=O)N(CC3CC3)C1=O)[C@H]1C(=O)N(c3ccc(C#N)c(C(F)(F)F)c3)C(=O)[C@H]12 | 50 | – | – | 873 | 3330 | – | – | – | – | – |
| CC(C)OC(=O)N1C[C@@]2(C)O[C@@](C)(C1)[C@@H]1C(=O)N(c3ccc(C#N)c(C(F)(F)F)c3)C(=O)[C@@H]12 | 11 | 99 | 99 | 12 | 69 | – | – | – | – | – |
| CC(C)[N+]1([O-])C(=O)[C@]2(C)O[C@](C)(C1=O)[C@H]1C(=O)N(c3ccc(C#N)c(C(F)(F)F)c3)C(=O)[C@H]12 (some centres not stated) | 3600 | 58 | – | 3900 | 5000 | – | – | – | – | – |
| CCNC(=O)N1C[C@@]2(C)O[C@@](C)(C1)[C@@H]1C(=O)N(c3ccc(C#N)c(C(F)(F)F)c3)C(=O)[C@@H]12 | 176 | 97 | 76 | 313 | 1460 | – | – | – | – | – |
| CC(C)N1C(=O)[C@]2(C)O[C@](C)(C1=O)[C@H]1C(=O)N(c3ccc(C#N)c(C(F)(F)F)c3)C(=O)[C@H]12 | 14 | 99 | 99 | 32 | 125 | – | – | – | – | – |
| C[C@]12CN(O)C[C@](C)(O1)[C@@H]1C(=O)N(c3ccc(C#N)c(C(F)(F)F)c3)C(=O)[C@@H]12 | 37 | 97 | 79 | 182 | 1280 | – | – | – | – | – |
| CON1C[C@@]2(C)O[C@@](C)(C1)[C@@H]1C(=O)N(c3ccc(C#N)c(C(F)(F)F)c3)C(=O)[C@@H]12 | 3.7 | 99 | 72 | 24 | 179 | – | – | – | – | – |
